According to US6737383B1, “Herbicidal oxadiazolidines” (priority 1999, dated 2004):

Assays:
crabgrass = experiment: Test B pre/postemergence crabgrass; type: in vivo, Digitaria sanguinalis
How it was run: (§1)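 Herbicidal effect was estimated by eye on a ten-point control scale after plants spent twelve to sixteen days in a greenhouse following soil or foliar treatment. Foliar sprays targeted plants at one to four leaves; all doses were formulated in a non-phytotoxic solvent with surfactant.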

rice = experiment: Test B flood test rice; type: in vivo, Oryza sativa
How it was run: (§2)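 Flood test on plants grown to the 2-leaf stage; treated plants kept in greenhouse twelve to sixteen days, then visually rated against controls on a 0 (no effect) to 10 (complete control) scale.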

morningglory = experiment: Test B pre/postemergence morningglory; type: in vivo, Ipomoea hederacea; conditions: for Plant response rating, Morningglory: scale of 0 to 10 where 0 is no effect and 10 is complete control
How it was run: as §1

smallflower flatsedge = experiment: Test B flood test smallflower flatsedge; type: in vivo, Cyperus difformis
How it was run: as §2

giant foxtail = experiment: Test B pre/postemergence giant foxtail; type: in vivo, Setaria faberii
How it was run: as §1

surinam grass = experiment: Test B pre/postemergence surinam grass; type: in vivo, Brachiaria decumbens
How it was run: as §1

bamyardgrass = experiment: Test B flood test barnyardgrass; type: in vivo, Echinochloa crus-galli
How it was run: as §2

soybean = experiment: Test B pre/postemergence soybean; type: in vivo, Glycine max; conditions: for Plant response rating, Soybean: scale of 0 to 10 where 0 is no effect and 10 is complete control
How it was run: as §1

pigweed = experiment: Test B pre/postemergence pigweed; type: in vivo, Amaranthus retroflexus; conditions: for Plant response rating, Redroot pigweed: scale of 0 to 10 where 0 is no effect and 10 is complete control
How it was run: as §1

velvetleaf = experiment: Test B pre/postemergence velvetleaf; type: in vivo, Abutilon theophrasti; conditions: for Plant response rating, Velvetleaf: scale of 0 to 10 where 0 is no effect and 10 is complete control
How it was run: as §1

wild oat = experiment: Test B pre/postemergence wild oat; type: in vivo, Avena fatua; conditions: for Plant response rating, Wild oats: scale of 0 to 10 where 0 is no effect and 10 is complete control
How it was run: as §1

blackgrass = experiment: Test B pre/postemergence blackgrass; type: in vivo, Alopecurus myosuroides
How it was run: as §1

bedstraw = experiment: Test B pre/postemergence bedstraw; type: in vivo, Galium aparine; conditions: for Bedstraw plant response rating: scale 0 to 10, 0 is no effect, 10 is complete control
How it was run: as §1

corn = experiment: Test B pre/postemergence corn; type: in vivo, Zea mays
How it was run: as §1

cocklebur = experiment: Test B pre/postemergence cocklebur; type: in vivo, Xanthium strumarium
How it was run: as §1

wheat = experiment: Test B pre/postemergence wheat; type: in vivo, Triticum aestivum; conditions: for Plant response rating, Wheat: scale of 0 to 10 where 0 is no effect and 10 is complete control
How it was run: as §1

[1] = Postemergence, Rate 250 g/ha, scale 0 to 10
[2] = Postemergence, Rate 500 g/ha, scale of 0 to 10 where 0 is no effect and 10 is complete control
[3] = Preemergence, Rate 62 g/ha, scale of 0 to 10 where 0 is no effect and 10 is complete control
[4] = Preemergence, Rate 125 g/ha, scale of 0 to 10 where 0 is no effect and 10 is complete control
[5] = Preemergence, Rate 250 g/ha, scale 0 to 10, 0 is no effect, 10 is complete control
[6] = Preemergence, Rate 500 g/ha, scale 0 to 10, 0 is no effect, 10 is complete control
[7] = Rate 62 g/ha, Postemergence, scale 0 to 10 (0 no effect, 10 complete control)
[8] = Rate 125 g/ha, Postemergence, scale 0 to 10, 0 is no effect, 10 is complete control
[9] = Rate 62 g/ha, flood test species, Pre-emergence, visual evaluation after twelve to sixteen days
[10] = Rate 125 g/ha, under heading Pre-emergence, flood test species, visual evaluation after twelve to sixteen days
[11] = Rate 250 g/ha, Pre-emergence (flood test species), scale 0 to 10, 0 is no effect, 10 is complete control
[12] = Rate 500 g/ha, Pre-emergence, flood test species, scale 0 to 10 (0 no effect, 10 complete control)

Question: How did the “Crabgrass plant response rating” value (crabgrass; [1]) turn out when `CC(C)N(C(=O)n1oc(=O)n(CC(=O)N(C)C)c1=O)c1ccc(Cl)cc1` [Compound 477] was run?
Answer: 5

Question: And the “Crabgrass plant response rating” value (crabgrass; [2])?
Answer: 7

Question: And the “Plant response rating, Crabgrass” value (crabgrass; [3])?
Answer: 8

Question: What about the “Plant response rating, Crabgrass” value (crabgrass; [4]) of the same compound?
Answer: 8

Question: And the “Crabgrass plant response rating” value (crabgrass; [5])?
Answer: 10

Question: And the “Crabgrass plant response rating” value (crabgrass; [6])?
Answer: 10

Question: What about the “Crabgrass plant response rating” value (crabgrass; [7]) of the same compound?
Answer: 1

Question: And the “Crabgrass plant response rating” value (crabgrass; [8])?
Answer: 2

Question: And the “Plant response rating, Rice (0 to 10 scale, 0 is no effect, 10 is complete control)” value (rice; [9])?
Answer: 0

Question: What about the “Rice plant response rating (0 to 10 scale, 0 is no effect, 10 is complete control)” value (rice; [10]) of the same compound?
Answer: 0

Question: What about the “Rice plant response rating” value (rice; [11]) of the same compound?
Answer: 0

Question: And the “Rice plant response rating” value (rice; [12])?
Answer: 0

Question: What about the “Morningglory plant response rating” value (morningglory; [1]) of the same compound?
Answer: 10

Question: What about the “Plant response rating, Morningglory” value (morningglory; Preemergence, Rate 62 g/ha) of the same compound?
Answer: 0

Question: And the “Plant response rating, Morningglory” value (morningglory; Preemergence, Rate 125 g/ha)?
Answer: 0

Question: And the “Morningglory plant response rating” value (morningglory; [5])?
Answer: 0

Question: And the “Morningglory plant response rating” value (morningglory; [6])?
Answer: 0

Question: What about the “Morningglory plant response rating” value (morningglory; [7]) of the same compound?
Answer: 6

Question: What about the “Morningglory plant response rating” value (morningglory; [8]) of the same compound?
Answer: 7

Question: And the “Plant response rating, S. Flatsedge (0 to 10 scale, 0 is no effect, 10 is complete control)” value (smallflower flatsedge; [9])?
Answer: 0

Question: And the “S. Flatsedge plant response rating (0 to 10 scale, 0 is no effect, 10 is complete control)” value (smallflower flatsedge; [10])?
Answer: 0

Question: What about the “S. Flatsedge plant response rating” value (smallflower flatsedge; [11]) of the same compound?
Answer: 0

Question: And the “S. Flatsedge plant response rating” value (smallflower flatsedge; [12])?
Answer: 0

Question: What about the “Giant foxtail plant response rating” value (giant foxtail; [1]) of the same compound?
Answer: 6

Question: And the “Giant foxtail plant response rating” value (giant foxtail; [2])?
Answer: 7

Question: And the “Plant response rating, Giant foxtail” value (giant foxtail; [3])?
Answer: 6

Question: What about the “Plant response rating, Giant foxtail” value (giant foxtail; [4]) of the same compound?
Answer: 6

Question: And the “Giant foxtail plant response rating” value (giant foxtail; [5])?
Answer: 9

Question: And the “Giant foxtail plant response rating” value (giant foxtail; [6])?
Answer: 10

Question: And the “Giant foxtail plant response rating” value (giant foxtail; [7])?
Answer: 2

Question: What about the “Giant foxtail plant response rating” value (giant foxtail; [8]) of the same compound?
Answer: 2

Question: What about the “B. signalgrass plant response rating” value (surinam grass; Postemergence, Rate 250 g/ha, scale 0 to 10, 0 no effect, 10 complete control) of the same compound?
Answer: 5

Question: And the “B. signalgrass plant response rating” value (surinam grass; [2])?
Answer: 5

Question: And the “Plant response rating, B. signalgrass” value (surinam grass; [3])?
Answer: 0

Question: And the “Plant response rating, B. signalgrass” value (surinam grass; [4])?
Answer: 2

Question: What about the “B. signalgrass plant response rating” value (surinam grass; [5]) of the same compound?
Answer: 4

Question: What about the “B. signalgrass plant response rating” value (surinam grass; [6]) of the same compound?
Answer: 6

Question: What about the “B. signalgrass plant response rating” value (surinam grass; [7]) of the same compound?
Answer: 0

Question: What about the “B. signalgrass plant response rating” value (surinam grass; [8]) of the same compound?
Answer: 0

Question: What about the “Plant response rating, Barnyardgrass (0 to 10 scale, 0 is no effect, 10 is complete control)” value (bamyardgrass; [9]) of the same compound?
Answer: 0

Question: And the “Barnyardgrass plant response rating (0 to 10 scale, 0 is no effect, 10 is complete control)” value (bamyardgrass; [10])?
Answer: 0

Question: What about the “Barnyardgrass plant response rating” value (bamyardgrass; [11]) of the same compound?
Answer: 0

Question: And the “Barnyardgrass plant response rating” value (bamyardgrass; [12])?
Answer: 0

Question: And the “Soybean plant response rating” value (soybean; [1])?
Answer: 2

Question: And the “Plant response rating, Soybean” value (soybean; Preemergence, Rate 62 g/ha)?
Answer: 0

Question: What about the “Plant response rating, Soybean” value (soybean; Preemergence, Rate 125 g/ha) of the same compound?
Answer: 0

Question: And the “Soybean plant response rating” value (soybean; [5])?
Answer: 3

Question: And the “Soybean plant response rating” value (soybean; [6])?
Answer: 4

Question: And the “Soybean plant response rating” value (soybean; [7])?
Answer: 1

Question: What about the “Soybean plant response rating” value (soybean; [8]) of the same compound?
Answer: 1

Question: What about the “Redroot pigweed plant response rating” value (pigweed; [1]) of the same compound?
Answer: 2

Question: And the “Plant response rating, Redroot pigweed” value (pigweed; Preemergence, Rate 62 g/ha)?
Answer: 0

Question: And the “Plant response rating, Redroot pigweed” value (pigweed; Preemergence, Rate 125 g/ha)?
Answer: 1

Question: What about the “Redroot pigweed plant response rating” value (pigweed; [5]) of the same compound?
Answer: 6

Question: And the “Redroot pigweed plant response rating” value (pigweed; [6])?
Answer: 8

Question: What about the “Redroot pigweed plant response rating” value (pigweed; [7]) of the same compound?
Answer: 0

Question: What about the “Redroot pigweed plant response rating” value (pigweed; [8]) of the same compound?
Answer: 0

Question: And the “Velvetleaf plant response rating” value (velvetleaf; [1])?
Answer: 0

Question: What about the “Plant response rating, Velvetleaf” value (velvetleaf; Preemergence, Rate 62 g/ha) of the same compound?
Answer: 0

Question: And the “Plant response rating, Velvetleaf” value (velvetleaf; Preemergence, Rate 125 g/ha)?
Answer: 0

Question: And the “Velvetleaf plant response rating” value (velvetleaf; [5])?
Answer: 0

Question: What about the “Velvetleaf plant response rating” value (velvetleaf; [6]) of the same compound?
Answer: 0

Question: And the “Velvetleaf plant response rating” value (velvetleaf; [7])?
Answer: 0

Question: What about the “Velvetleaf plant response rating” value (velvetleaf; [8]) of the same compound?
Answer: 0

Question: And the “Wild oats plant response rating” value (wild oat; [1])?
Answer: 0

Question: What about the “Plant response rating, Wild oats” value (wild oat; Preemergence, Rate 62 g/ha) of the same compound?
Answer: 0

Question: And the “Plant response rating, Wild oats” value (wild oat; Preemergence, Rate 125 g/ha)?
Answer: 5

Question: What about the “Wild oats plant response rating” value (wild oat; [5]) of the same compound?
Answer: 5

Question: And the “Wild oats plant response rating” value (wild oat; [6])?
Answer: 7

Question: And the “Wild oats plant response rating” value (wild oat; [7])?
Answer: 0

Question: What about the “Wild oats plant response rating” value (wild oat; [8]) of the same compound?
Answer: 0

Question: And the “Blackgrass plant response rating” value (blackgrass; [1])?
Answer: 6

Question: What about the “Blackgrass plant response rating” value (blackgrass; [2]) of the same compound?
Answer: 6

Question: What about the “Plant response rating, Blackgrass” value (blackgrass; [3]) of the same compound?
Answer: 0

Question: And the “Plant response rating, Blackgrass” value (blackgrass; [4])?
Answer: 1

Question: What about the “Blackgrass plant response rating” value (blackgrass; [5]) of the same compound?
Answer: 7

Question: What about the “Blackgrass plant response rating” value (blackgrass; [6]) of the same compound?
Answer: 8

Question: And the “Blackgrass plant response rating” value (blackgrass; [7])?
Answer: 0

Question: And the “Blackgrass plant response rating” value (blackgrass; [8])?
Answer: 0

Question: And the “Plant response rating, Bedstraw” value (bedstraw; [3])?
Answer: 0

Question: What about the “Bedstraw plant response rating” value (bedstraw; Preemergence, Rate 500 g/ha) of the same compound?
Answer: 3

Question: And the “Bedstraw plant response rating” value (bedstraw; Rate 125 g/ha, Postemergence)?
Answer: 0

Question: What about the “Corn plant response rating” value (corn; [1]) of the same compound?
Answer: 0

Question: What about the “Corn plant response rating” value (corn; [2]) of the same compound?
Answer: 0

Question: What about the “Plant response rating, Corn” value (corn; [3]) of the same compound?
Answer: 0

Question: What about the “Plant response rating, Corn” value (corn; [4]) of the same compound?
Answer: 0

Question: And the “Corn plant response rating” value (corn; [5])?
Answer: 0

Question: And the “Corn plant response rating” value (corn; [6])?
Answer: 0

Question: What about the “Corn plant response rating” value (corn; [7]) of the same compound?
Answer: 0

Question: And the “Corn plant response rating” value (corn; [8])?
Answer: 0

Question: What about the “Cocklebur plant response rating” value (cocklebur; [1]) of the same compound?
Answer: 0

Question: What about the “Cocklebur plant response rating” value (cocklebur; [2]) of the same compound?
Answer: 0

Question: What about the “Plant response rating, Cocklebur” value (cocklebur; [3]) of the same compound?
Answer: 0

Question: And the “Plant response rating, Cocklebur” value (cocklebur; [4])?
Answer: 0

Question: What about the “Cocklebur plant response rating” value (cocklebur; [5]) of the same compound?
Answer: 0

Question: What about the “Cocklebur plant response rating” value (cocklebur; [6]) of the same compound?
Answer: 0

Question: What about the “Cocklebur plant response rating” value (cocklebur; [7]) of the same compound?
Answer: 0

Question: And the “Cocklebur plant response rating” value (cocklebur; [8])?
Answer: 0

Question: What about the “Wheat plant response rating” value (wheat; [1]) of the same compound?
Answer: 0

Question: What about the “Plant response rating, Wheat” value (wheat; Preemergence, Rate 62 g/ha) of the same compound?
Answer: 0

Question: And the “Plant response rating, Wheat” value (wheat; Preemergence, Rate 125 g/ha)?
Answer: 0

Question: What about the “Wheat plant response rating” value (wheat; [5]) of the same compound?
Answer: 0

Question: And the “Wheat plant response rating” value (wheat; [6])?
Answer: 0

Question: And the “Wheat plant response rating” value (wheat; [7])?
Answer: 0

Question: And the “Wheat plant response rating” value (wheat; [8])?
Answer: 0
